# Measured values taken from patent US12186358B2, “Compositions and methods for supporting immune health” (Plexus Worldwide, LLC, priority 2021, dated 2025).
# What was measured:
# Type in all cases: cell-based, Human
# Details in all cases: LPS 0.1 ng/mL
# [1] = tested on: IL-1β; test: Cytokine expression in PBMC supernatants (Luminex multiplex): IL-1β
# Method: (§1) An exemplary natural-based composition is evaluated in an in vitro Peripheral Blood […] Cells cellular inflammation model.
# (§2) Test Item Preparation: 120 mg of the exemplary composition (Project Shield) was dissolved in 6000 μL of CGM on the day of use to create a 2% (w/v) Dilution Stock Solution. A 2 ng/mL Working Stock of Lipopolysaccharides (“LPS”) was prepared fresh with IM and stored at 2-8° C. 10 μL LPS (2 ng/mL) was added to the appropriate wells for a final concentration of 0.1 ng/mL.
# (§3) Complete Growth Media (CGM): To formulate CGM, RPMI was supplemented with 10% FBS and 100 U/mL penicillin+100 μg/mL streptomycin. CGM was prepared aseptically and stored at 2-8° C. for the duration of the study. CGM was warmed to 37° C. prior to use.
# (§4) Cell Culture Set-up: Cells were thawed according to manufacturer's instructions, washed in CGM and assessed for viability using trypan blue staining. A stock cell solution of 2×10^6 cells/mL suspended in CGM was prepared. 100 μL of the stock solution was added to appropriate wells of a 96-well plate to seed 2×10^5 cells per well. […]
# (§5) As illustrated in FIGS. 1-8, inflammatory cytokine expression for cell supernatants at 48 hours post stimulation/treatment. Expression was assessed by multiplex using the Luminex platform for the following cytokines: IFNγ, IL-1β, IL-6, IL-8, IL-10, IL-12p40, IL-12p70, TNF-α. […]
# [2] = tested on: IL-12p70; test: Cytokine expression in PBMC supernatants (Luminex multiplex): IL-12p70
# Method: as §1, §2, §3, §4, §5
# [3] = tested on: IL-10; test: Cytokine expression in PBMC supernatants (Luminex multiplex): IL-10
# Method: as §1, §2, §3, §4, §5
# [4] = tested on: IFNγ; test: Cytokine expression in PBMC supernatants (Luminex multiplex): IFNγ
# Method: as §1, §2, §3, §4, §5
# [5] = tested on: TNF-α; test: Cytokine expression in PBMC supernatants (Luminex multiplex): TNF-α
# Method: as §1, §2, §3, §4, §5
# [6] = tested on: IL-8; test: Cytokine expression in PBMC supernatants (Luminex multiplex): IL-8
# Method: as §1, §2, §3, §4, §5
# [7] = tested on: IL-6; test: Cytokine expression in PBMC supernatants (Luminex multiplex): IL-6
# Method: as §1, §2, §3, §4, §5
# [8] = tested on: IL-12p40; test: Cytokine expression in PBMC supernatants (Luminex multiplex): IL-12p40
# Method: as §1, §2, §3, §4, §5
substance,measurement,setting,value
Lipopolysaccharides [LPS],"IL-1β, LPS control Group vs Media Control","[1]; donor 1, 48 h",not significantly increased
same,"IL-1β, LPS control Group vs Media Control","[1]; donor 2, 48 h",not significantly increased
same,"IL-12p70, LPS control Group vs Media Control","[2]; donor 1, 48 h",significantly increased
same,"IL-12p70, LPS control Group vs Media Control","[2]; donor 2, 48 h",significantly increased
same,"IL-10, LPS control Group vs Media Control","[3]; donor 1, 48 h",significantly increased
same,"IL-10, LPS control Group vs Media Control","[3]; donor 2, 48 h",not donor 2
same,"IFNγ, LPS control Group vs Media Control","[4]; donor 1, 48 h",significantly increased
same,"IFNγ, LPS control Group vs Media Control","[4]; donor 2, 48 h",significantly increased
same,"TNF-α, LPS control Group vs Media Control","[5]; donor 1, 48 h",not donor 1
same,"TNF-α, LPS control Group vs Media Control","[5]; donor 2, 48 h",significantly increased
same,"IL-8, LPS control Group vs Media Control","[6]; donor 1, 48 h",not donor 1
same,"IL-8, LPS control Group vs Media Control","[6]; donor 2, 48 h",significantly increased
same,"IL-6, LPS control Group vs Media Control","[7]; donor 1, 48 h",significantly increased
same,"IL-6, LPS control Group vs Media Control","[7]; donor 2, 48 h",significantly increased
same,"IL-12p40, LPS control Group vs Media Control","[8]; donor 1, 48 h",significantly increased
same,"IL-12p40, LPS control Group vs Media Control","[8]; donor 2, 48 h",significantly increased
